Assay results published in patent publication US20250179024A1, “AMYLOID AND ASSOCIATED PATHOLOGY MODULATORS AND METHODS THEREOF” (Jawaharlal Nehru Centre for Advanced Scientific Research, priority 2022, published 2025).

What was measured:
Aβ fibrils = molecular target: T1, Aβ fibrils (Homo sapiens, UniProt P05067); experiment: Dot blot assay of Aβ fibrillar aggregation inhibition (OC antibody); assay type: biochemical; settings: Aβ 10 μM, NMIs 20 μM, PBS pH 7.4, 37° C., 48 h
T1 construct: is a 42 amino acid proteolytic product from the amyloid precursor protein; purchased Invitrogen
Experimental: Aggregation modulation by toxic Aβ aggregates were assessed and were quantified by dot blot assay. Aβ peptide (10 μM) was dissolved in phosphate buffered saline (PBS, 10 mM, pH 7.4), incubated alone and with NMIs (20 μM) at 37° C. for 48 h. For concentration dependent inhibition, 10 μM Aβ peptide was incubated with 1, 2, 5, 10 and 20 μM of NMIs and incubated. Samples for oligomer inhibition studies were prepared by incubating Aβ alone and with NMIs at 4° C. for 24 and subjected to dot blot analysis. For dissolution studies, Aβ peptide alone was incubated in PBS for 48 h to prepare fibrils and then incubated with NMIs further for 48 h. For dot blot experiment, 5 μL of sample was blotted on activated PVDF (polyvinylidene fluoride) membrane in triplicates and air dried. The membrane was blocked with skimmed milk powder for 1 h at room temperature. The blot paper was washed with tris-buffered saline with 0.01% Tween 20 (TBST) three times for 5 min. Blot paper was treated with fibril specific OC primary antibody (Rabbit, 1:1000 dilution) overnight at 4° C. For oligomers blot A11 anti-oligomer antibody (Rabbit 1:1000) was used. Blot was washed thrice with TBST and treated with HRP-conjugated antirabbit secondary antibody (1:5000 dilutions) for 1 h at room temperature. The bolt was washed thrice for 5 min with TBST and developed with ECL reagent (Biorad) and imaged with ChemiDoc BioRad gel documentation system in autoexposure mode. Blots were analyzed and quantified by ImageJ software. The ability of the NMIs, the compounds of the present disclosure M1-M4 to inhibit Aβ aggregation and dissolve the preformed fibrillar aggregates was evaluated by dot blot assay as explained in Example 2 above. Aβ (10 μM) was incubated alone and with NMIs (20 μM) in phosphate buffer saline (PBS, 10 mM and pH 7.4) at 37° C. for 48 h to form Aβ fibrillar aggregates. The samples were blotted and probed with fibril-selective OC antibody (rabbit anti-human amyloid fibrils). […] M3 was further assessed for inhibitory effect at lower concentrations. […] It has been observed that the oligomers are a highly toxic species compared to Aβ fibrillar aggregates. The ability of NMIs (M3) to inhibit the formation of Aβ oligomers was assessed by dot blot assay. Aβ peptide (10 μM) was incubated with NMIs at 4° C. for 24 h followed by probing with A11 oligomer-specific antibody. […] Native PAGE and western blot analysis was carried out to understand the size distribution of Aβ aggregated species. […] In order to analyse the higher order aggregates not permeable in the gel matrix and the morphological characteristics, Aβ samples were subjected to atomic force microscopy (AFM) imaging.

Aβ oligomers = molecular target: T2, Aβ oligomers (Homo sapiens, UniProt P05067); experiment: Dot blot assay of Aβ oligomer inhibition (A11 antibody); assay type: biochemical; settings: Aβ 10 μM, NMIs 20 μM, 4° C., 24 h
T2 construct: is a 42 amino acid proteolytic product from the amyloid precursor protein; purchased Invitrogen
Experimental: Aggregation modulation by toxic Aβ aggregates were assessed and were quantified by dot blot assay. Aβ peptide (10 μM) was dissolved in phosphate buffered saline (PBS, 10 mM, pH 7.4), incubated alone and with NMIs (20 μM) at 37° C. for 48 h. For concentration dependent inhibition, 10 μM Aβ peptide was incubated with 1, 2, 5, 10 and 20 μM of NMIs and incubated. Samples for oligomer inhibition studies were prepared by incubating Aβ alone and with NMIs at 4° C. for 24 and subjected to dot blot analysis. For dissolution studies, Aβ peptide alone was incubated in PBS for 48 h to prepare fibrils and then incubated with NMIs further for 48 h. For dot blot experiment, 5 μL of sample was blotted on activated PVDF (polyvinylidene fluoride) membrane in triplicates and air dried. The membrane was blocked with skimmed milk powder for 1 h at room temperature. The blot paper was washed with tris-buffered saline with 0.01% Tween 20 (TBST) three times for 5 min. Blot paper was treated with fibril specific OC primary antibody (Rabbit, 1:1000 dilution) overnight at 4° C. For oligomers blot A11 anti-oligomer antibody (Rabbit 1:1000) was used. […] Blots were analyzed and quantified by ImageJ software. […] The ability of NMIs (M3) to inhibit the formation of Aβ oligomers was assessed by dot blot assay. […]

[1] = Metal chelation by UV-visible absorbance and fluorescence spectra; assay type: physicochemical; settings: NMIs 20 μM, Cu or Zn 2.5 to 40 μM
Text: The compounds of the present disclosure (NMIs) were designed to chelate with metals (Cu and Zn) and alleviate the metal-dependent Aβ toxicity. […] The change in absorbance and fluorescence spectra of NMIs were monitored to understand the interaction with Cu(II) and Zn(II). […] The fluorescence intensity of M3 at 525 nm decreased with the increasing concentration of Cu(II) or Zn(II) (FIGS. 6(A & B)).

Aβ = molecular target: T3, Aβ (Homo sapiens, UniProt P05067); experiment: AFM imaging of Aβ samples; settings: Aβ 10 μM, NMIs 20 μM; FIG. 1C
T3 construct: is a 42 amino acid proteolytic product from the amyloid precursor protein; purchased Invitrogen
Experimental: AFM imaging was done to understand the morphological characteristics of Aβ and NMI treated samples. The samples from Aβ aggregation inhibition and dissolution studies were used for AFM imaging. 25 μL of sample was drop-casted on freshly cleaved mica substrate. The Aβ samples were allowed to adhere to substrate surface for 15 min, washed with filtered MiliQ water and air dried. The samples were imaged in Scan assist Air mode in Bioscope resolve AFM system (Bruker). The images were processed and analyzed using NanoScope analysis software. […] It has been observed that the oligomers are a highly toxic species compared to Aβ fibrillar aggregates. The ability of NMIs (M3) to inhibit the formation of Aβ oligomers was assessed by dot blot assay. Aβ peptide (10 μM) was incubated with NMIs at 4° C. for 24 h followed by probing with A11 oligomer-specific antibody. […] Native PAGE and western blot analysis was carried out to understand the size distribution of Aβ aggregated species. […] In order to analyse the higher order aggregates not permeable in the gel matrix and the morphological characteristics, Aβ samples were subjected to atomic force microscopy (AFM) imaging.

[2] = molecular target: T4, preformed Aβ fibrillar aggregates (Homo sapiens, UniProt P05067); experiment: Dot blot assay of dissolution of preformed Aβ fibrillar aggregates; assay type: biochemical; settings: Aβ aggregates 10 μM, NMIs 20 μM, 48 h
T4 construct: is a 42 amino acid proteolytic product from the amyloid precursor protein; purchased Invitrogen
Experimental: Aggregation modulation by toxic Aβ aggregates were assessed and were quantified by dot blot assay. Aβ peptide (10 μM) was dissolved in phosphate buffered saline (PBS, 10 mM, pH 7.4), incubated alone and with NMIs (20 μM) at 37° C. for 48 h. For concentration dependent inhibition, 10 μM Aβ peptide was incubated with 1, 2, 5, 10 and 20 μM of NMIs and incubated. Samples for oligomer inhibition studies were prepared by incubating Aβ alone and with NMIs at 4° C. for 24 and subjected to dot blot analysis. For dissolution studies, Aβ peptide alone was incubated in PBS for 48 h to prepare fibrils and then incubated with NMIs further for 48 h. For dot blot experiment, 5 μL of sample was blotted on activated PVDF (polyvinylidene fluoride) membrane in triplicates and air dried. The membrane was blocked with skimmed milk powder for 1 h at room temperature. The blot paper was washed with tris-buffered saline with 0.01% Tween 20 (TBST) three times for 5 min. Blot paper was treated with fibril specific OC primary antibody (Rabbit, 1:1000 dilution) overnight at 4° C. For oligomers blot A11 anti-oligomer antibody (Rabbit 1:1000) was used. Blot was washed thrice with TBST and treated with HRP-conjugated antirabbit secondary antibody (1:5000 dilutions) for 1 h at room temperature. The bolt was washed thrice for 5 min with TBST and developed with ECL reagent (Biorad) and imaged with ChemiDoc BioRad gel documentation system in autoexposure mode. Blots were analyzed and quantified by ImageJ software. The fibrillar aggregates were formed by incubating Aβ peptide (10 μM) in PBS (pH 7.4) at 37° C. for 48 h. The aggregate samples were treated with NMIs (20 μM) for 48 h followed by dot blot analysis. […] These studies confirmed that M3 as the potential candidate to dissolve Aβ fibrillar aggregates to possibly nontoxic species.

[3] = molecular target: T5, Aβ in the presence of Zn (II) (Homo sapiens, UniProt P05067); experiment: Zn-dependent Aβ aggregation, native PAGE and western blot; assay type: biochemical; settings: Aβ 10 μM, Zn (II) 20 μM, NMIs 20 μM, 37° C., 48 h
T5 construct: is a 42 amino acid proteolytic product from the amyloid precursor protein; purchased Invitrogen
Experimental: The samples were prepared by incubating Aβ42 with specific concentration of NMI compounds of present disclosure and metal ions for 48 h and then subjected to 6% native polyacrylamide gel electrophoresis (Native-PAGE) in tris-glycine buffer. The lower molecular weight aggregates permeabilized through the gel and resolved in the gel. Higher molecular aggregates stuck in the upper part of wells and potentially carried in gel. Then the protein was transferred to PVDF membrane for 4 h at cold condition maintained using ice cold transfer buffer and immersing the transfer apparatus in ice. Then the blots were continued similar to dot blots.
The absorbance and fluorescence spectroscopy studies together with mass spectrometry data confirmed the selective Cu (II) or Zn (II) chelation property of M1 and M3. […] Aβ (10 μM) was incubated in the presence of Cu (II) or Zn (II) (20 μM) with NMIs at 37° C. for 48 h and the samples were subjected to native PAGE and western blot analysis. […] Modulation of Zn-dependent Aβ aggregation by M4 was attributed to its two Zn (II) chelation centres. M3 with dopamine and DPA moieties effectively modulated both Cu (II) and Zn (II)-dependent Aβ aggregation. The effect of NMIs on the morphological outcome of metal-dependent Aβ aggregation was visualized by AFM imaging (FIGS. 1E and 1F). Aβ in the presence of Cu (II) and Zn (II) formed dense and thick fibrils.

T3 sequence (P05067 672-713 limits assumed): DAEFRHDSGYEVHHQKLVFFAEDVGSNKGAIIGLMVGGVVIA
T1 sequence (P05067 672-713 limits assumed): as above
T4 sequence (P05067 672-713 limits assumed): as above
T5 sequence (P05067 672-713 limits assumed): as above
T2 sequence (P05067 672-713 limits assumed): as above

SMILES | inhibition of the formation of Aβ fibrils (Aβ fibrils) [%] | oligomer inhibition (Aβ oligomers) [%] | interaction with Cu (II) and Zn (II), change in absorbance spectra [1] | morphology of Aβ sample, aggregation inhibition (Aβ) | dissolution efficiency [2] [%] | Zn-dependent Aβ aggregation [3]
CN(C)c1ccc2c3c(cccc13)C(=O)N(CCN(Cc1ccccn1)Cc1ccccn1)C2=O [M2, 2-(2-(bis(pyridin-2-ylmethyl)amino)ethyl)-6-(dimethylamino)-1H-benzo[de]isoquinoline-1,3(2H)-dione] | ~11 | 40 | no significant change in the spectra | fibrillar structures | 25 | –
O=C1c2cccc3c(N(Cc4ccccn4)Cc4ccccn4)ccc(c23)C(=O)N1CCN(Cc1ccccn1)Cc1ccccn1 [M4, 6-(bis(pyridin-2-ylmethyl)amino)-2-(2-(bis(pyridin-2-ylmethyl)amino)ethyl)-1H-benzo[de]isoquinoline-1,3(2H)-dione] | ~11 | – | no significant change in the spectra | fibrillar structures | 43 | reduce Zn-dependent Aβ aggregation
